# What was measured:
# [1] = system: Salmonella typhimurium tester strains (TA1535, TA1537, TA98, TA100); assay: Ames bacterial reverse mutation assay, vapor-phase exposure by desiccator methodology; assay type: cell-based; conditions: for mutagenicity / toxicity of the single isomer as concluded from the Ames tests of mixture and purified material: conclusion from comparing the 71.2/28.5 trans/cis mixture with the 96.5 wt % trans material
# Procedure: (§1) Toxological testing was undertaken as part of the evaluation of HCFO-1233zd as a blowing agent. Ames testing was performed on a blend of trans- and cis- HCFO-1233zd and purified trans- HCFO-1233zd. The Ames test is a study designed to determine if a material can interact with DNA and cause point mutations, i.e. to determine if a material is mutagenic. Many carcinogenic materials are also mutagenic and this assay is often used as a quick screen for potential to cause an adverse effect on genetic material. It utilizes several strains of bacteria (Salmonella typhimurium and E. coli) and is often routinely included when developing the toxicology profile of a substance. If a substance substantially increases the mutation rate in the bacterial tester strains, the study result is defined as positive and the test substance is considered to be mutagenic.
# (§2) The purpose of the study was to evaluate the mutagenic potential of the test article vapor by measuring it ability to induce reverse mutations at selected loci of several stains of Salmonella typhimurium and at the tryptophan locus of Escherichia coli strains WP2 uvrA in the presence and absence of Aroclor-induced rat liver S9. The test system was exposed to the test article via desiccator methodology. For each replicate plating, the mean and standard deviation of the number of revertants per plate were calculated and reported. Negative and positive controls were also run.
# (§3) For the test article to be evaluated positive, it must cause a dose-related increase in the mean revertants per plate of at least one tester strain over a minimum of two increasing concentrations of test article. Data for tester strains TA1535 and TA1537 were judged positive if the increase in mean revertants at the peak of the dose response is equal to or judged greater than 3.0-times the mean vehicle control value. Data sets for tester strains TA98, TA100 and WP2 uvrA were judged positive if the increase in mean revertants at the peak of the dose response is equal to or greater than 2.0-times the mean vehicle control value.
# [2] = system: Escherichia coli strains WP2 uvrA (tryptophan locus); assay: as above; assay type: cell-based; conditions: E. coli WP2 uvrA
# Procedure: as §1, §2, §3
Compound,mutagenicity / toxicity of the single isomer as concluded from the Ames tests of mixture and purified material [1],Ames test result (mutagenic response) ([2]; presence and absence of Aroclor-induced rat liver S9),toxicity to tester strains ([2]; with and without S9),"Ames test result (mutagenic response) ([1]; Salmonella typhimurium tester strains, presence and absence of Aroclor-induced rat liver S9)","toxicity to tester strains ([1]; Salmonella typhimurium tester strains, with and without S9)",mutagenicity / toxicity of the single isomer as concluded from the Ames tests of mixture and purified material ([1]; listed as trans isomer)
"FC(F)(F)/C=C\Cl [cis-isomer, cis-1-chloro-3,3,3-trifluoropropene]",active mutagenic agent,–,–,–,–,–
"FC(F)(F)C=CCl [purified material, 1-chloro-3,3,3-trifluoropropene]",–,did not cause a positive mutagenic response,No toxicity was observed,did not cause a positive mutagenic response,No toxicity was observed,–
"FC(F)(F)/C=C/Cl [trans-isomer of 1-chloro-3,3,3-trifluoropropene, trans-1-chloro-3,3,3-trifluoropropene]",less toxic,–,–,–,–,significantly lower genotoxicity
